Experimental data published in patent US8865762B2, “Method for the treatment of bone diseases comprising colforsin daropate” (Korea Research Institute of Bioscience and Biotechnology, priority 2009, dated 2014).
“Also recorded” adds a separate entry of the source.

What was measured:
[1] = system: ovariectomy-induced bone loss; assay: Bone density-improving effect in ovariectomy-induced osteoporosis model (micro-CT); type: in vivo, DDY female mice; conditions: ovariectomized mice, p.o. 5 mg/kg or 10 mg/kg once a day for 4 weeks, FIG. 4, monohydrochloride
Method: Thus, most studies are performed in animals. Ovariectomized mice are frequently used as a model for postmenopausal osteoporosis. Ovariectomized mice and early postmenopausal women share many similar characteristics, and thus ovariectomized mice have been commonly used in the studies of osteoporosis therapeutic agents. The present inventors performed ovariectomies on 5-week-old DDY female mice. The mice were anesthetized by intraperitoneal injection of 25 mg/kg of pentobarbital sodium (JW Pharmaceutical Corp). The abdomen of each mouse was shaved, and the surgical site was cleansed with antiseptics to perform ovariectomy. A 1.5 cm abdominal incision was made through the skin, muscle, and peritoneum to expose the ovary. The ovary was dissected out, and the peritoneum, muscle, and skin were sutured. As a control group, a sham ovariectomy was performed to the peritoneum identically, but the ovaries remained intact. The mouse models having ovariectomy-induced bone loss were orally administered (p.o.) with the colforsin compound at the concentrations of 5 mg/kg or 10 mg/kg once a day for 4 weeks. The effects were examined using a high resolution in-vivo micro-CT system (explore Locus scanner, GE Health Care, USA) to analyze the bone density.

[2] = system: ALP activity in murine osteoblastic cell, MC3T3-E1 subclone 4; assay: Alkaline phosphatase (ALP) activity of osteoblast, MC3T3-E1; type: cell-based; set-up: osteoblast differentiation-related ALP activity compared with the control compound purmorphamine: dose or concentration left out as unconfirmed
Method: (§1) In order to examine the effect of colforsin daropate on the activity of ALP, of which activity and expression are known to be increased at an early stage of osteoblast differentiation, the following experiment was performed. A murine osteoblastic cell, MC3T3-E1 subclone 4 (ATCC CRL-2593) was treated with colforsin daropate. After 8 days, cells were lysed using a lysis buffer (10 mM Tris-HCl, pH 7.5, 0.5 mM MgCl2, 0.1% Triton X-100) at room temperature for 30 minutes, and centrifuged at 12,000 rpm and 4° C. for 20 minutes. Next, […] in the obtained supernatant using a BCA kit (Bio-Rad), and its activity was measured using a LabAssay ALP kit (Wako, Japan). In this regard, the measured activity was presented as a % of the control, and a significance test was performed by t-test (colforsin daropate treatment, p<0.05; purmorphamine treatment as control, p<0.05). The same experiment was performed using multipotent C3H10T1/2 cells (cells can differentiate toward various lineages, including osteocytes).

[3] = system: TRAP activity induced by RANKL in the monocytic cell line RAW264.7; assay: Osteoclast differentiation, TRAP staining and activity assay; type: cell-based, murine
Method: At this time, α-MEM containing 100 ng/ml RANKL (R&D systems) and 10% FBS was used as a cell suspension medium. After 24 hours, the cells were treated with colforsin daropate at various concentrations (0, 0.2, 1, 2, 10, and 20 μM). After 3 days, TRAP staining was performed using a leukocyte acid phosphatase kit (Sigma). The stained cells were first fixed in 10% formalin for 10 minutes, and then dehydrated in 95% ethanol, and dried well at room temperature. Subsequently, 100 μl of citrate buffer (50 mM, pH 4.6) containing 10 mM sodium tartrate and 5 mM p-nitrophenylphosphate was added to each well, and reacted for 20 to 30 minutes. Thereafter, the enzyme reaction mixtures were transferred into new 96-well plates, and the reaction was terminated using 100 μl of 0.1 N NaOH. Absorbance was measured at 405 nm. TRAP activity was presented as a % of control, and a significance test was performed by t-test at the same time (purmorphamine treatment p<0.01; colforsin daropate treatment p<0.001). Purmorphamine was used as a control compound.

[4] = system: murine monocytic cell line, RAW264.7; assay: Cytotoxicity test of monocytes (CCK-8 kit); type: cell-based; conditions: RAW264.7, 0, 10, 20 and 30 μM, after 1, 2 and 4 days, FIG. 1, monohydrochloride
Method: The murine monocytic cell line, RAW264.7 (ATTC TIB-71) was cultured in a DMEM medium supplemented with 10% FBS, and the medium was replaced every other day. The cell culture reagents were purchased from Hyclone. When RAW264.7 cells reached 70% confluence, the collected cells were aliquotted into a 96-well plate at a density of 1×10^3/well, and cultured for 24 hours. Subsequently, the cells were treated with colforsin daropate at various concentrations (0, 10, 20 and 30 μM), and cultured for 96 hours. After 1, 2, and 4 days in culture, a cytotoxicity test was performed using the cells in each well and a CCK-8 kit (Dojindo, Japan).

[5] = system: ALP activity in multipotent C3H10T1/2 cells; assay: Alkaline phosphatase (ALP) activity, C3H10T1/2; type: cell-based; conditions: FIG. 3B
Method: as §1, with “A” for “In order to examine the effect of colforsin daropate on the activity of ALP, of which activity and expression are known to be increased at an early stage of osteoblast differentiation, the following experiment was performed. A”

[6] = system: murine osteoblastic cell, MC3T3-E1 subclone 4; assay: Cell proliferation of osteoblastic cells; type: cell-based

With `C=C[C@@]1(C)CC(=O)[C@]2(O)[C@@]3(C)[C@@H](O)CCC(C)(C)[C@@H]3[C@H](OC(=O)CCN(C)C)[C@H](OC(C)=O)[C@@]2(C)O1.Cl` [colforsin daropate] the “bone density / ovariectomy-induced bone loss” value [1] was “remarkably increased; also recorded: remarkably improved”, the ALP activity ([2]; MC3T3-E1 subclone 4, after 8 days, % of control, FIG. 3A) was “remarkably increased” and the “osteoblast differentiation-related ALP activity compared with the control compound purmorphamine” value ([2]; versus purmorphamine) was “more increased”. The “TRAP activity induced by RANKL” value ([3]; RAW264.7, 100 ng/ml RANKL, 0.2-20 μM, 3 days, % of control, FIG. 2) was “inhibited TRAP activity induced by RANKL in the monocytic cell line RAW264.7 in a concentration-dependent manner”, the osteoclast differentiation ([3]; RAW264.7 with RANKL, FIGS. 1 and 2) was “efficacy of inhibiting osteoclast differentiation” and the cytotoxicity [4] was “no cytotoxicity; also recorded: without cytotoxicity”. The ALP activity [5] was “also remarkably increased” and the cell proliferation [6] was “did not affect cell proliferation”.
